Data reported in PubChem BioAssay (NCI).
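In this assay, cells in 96-well plates receive the compound at five concentrations for 48 hours. Endpoints are linearly interpolated between the surrounding concentrations. Definition used: TGI = concentration required for complete inhibition of growth.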

Assays:
Assay in all cases: NCI tumour cell line growth inhibition, 48 h
A498 renal = test system: A498 renal
KM12 colon = test system: KM12 colon
SF-295 CNS = test system: SF-295 CNS
CAKI-1 renal = test system: CAKI-1 renal
OVCAR-3 ovarian = test system: OVCAR-3 ovarian
NCI-H460 lung = test system: NCI-H460 lung
HL-60(TB) leukemia = test system: HL-60(TB) leukemia
HS 578T breast = test system: HS 578T breast
CCRF-CEM leukemia = test system: CCRF-CEM leukemia
SW-620 colon = test system: SW-620 colon
MCF7 breast = test system: MCF7 breast
HOP-62 NSCLC = test system: HOP-62 NSCLC
ACHN renal = test system: ACHN renal
SR leukemia = test system: SR leukemia
MDA-MB-231 breast = test system: MDA-MB-231 breast
RPMI-8226 leukemia = test system: RPMI-8226 leukemia
OVCAR-4 ovarian = test system: OVCAR-4 ovarian
SK-MEL-2 melanoma = test system: SK-MEL-2 melanoma
UACC-62 melanoma = test system: UACC-62 melanoma
DMS 273 small cell lung = test system: DMS 273 small cell lung

SMILES	TGI (A498 renal) [µM]	TGI (KM12 colon) [µM]	TGI (SF-295 CNS) [µM]	TGI (CAKI-1 renal) [µM]	TGI (OVCAR-3 ovarian) [µM]	TGI (NCI-H460 lung) [µM]	TGI (HL-60(TB) leukemia) [µM]	TGI (HS 578T breast) [µM]	TGI (CCRF-CEM leukemia) [µM]	TGI (SW-620 colon) [µM]	TGI (MCF7 breast) [µM]	TGI (HOP-62 NSCLC) [µM]	TGI (ACHN renal) [µM]	TGI (SR leukemia) [µM]	TGI (MDA-MB-231 breast) [µM]	TGI (RPMI-8226 leukemia) [µM]	TGI (OVCAR-4 ovarian) [µM]	TGI (SK-MEL-2 melanoma) [µM]	TGI (UACC-62 melanoma) [µM]	TGI (DMS 273 small cell lung) [µM]
O=C(Nc1nc(C23CC4CC(CC(C4)C2)C3)cs1)c1c(O)c2ccccc2[nH]c1=O	> 100	> 100	> 100	> 100	> 100	> 100	> 100	> 100	> 100	> 100	> 100	> 100	> 100	> 100	> 100	> 100	> 100			
CC(C)c1nc2cc(C(F)(F)F)ccc2[nH]c1=O	> 100	> 100	> 100	> 100	> 100	> 100	> 100	54.5	> 100	> 100	> 100	> 100	> 100	> 100	> 100	> 100	> 100	> 100	> 100	
CC(=O)NNc1nc(C)c(C(/C=C/c2ccc([N+](=O)[O-])cc2)=N/N)s1	> 100	> 100	> 100	> 100	> 100	> 100	> 100	> 100	> 100	> 100	> 100	> 100	> 100	> 100	95.4	89.2	> 100	> 100	> 100	
Cn1c2c(c3ccccc31)CCN(CCN1CCN(c3ccccc3)CC1)C2=O			> 100	> 100		> 100	> 100		> 100	> 100			> 100			> 100			> 100	> 100
CC(C)(C)n1c(=O)[nH]n(C2NN=Cc3cccc4cccc2c34)c1=O (centres undefined)	64.9	> 100		> 100	> 100	> 100	42.1	> 100	63.6	> 100	> 100			37.4	> 100	74.6	> 100	> 100	> 100	
CC1=NOC2(C1)C(=O)Nc1ccccc12 (centres undefined)	96.4	> 100	> 100	> 100	> 100	> 100	> 100	> 100	> 100	> 100	> 100	> 100	> 100	> 100	> 100	> 100	> 100	> 100	> 100	
COC(=O)CC1C(COC(C)=O)OC(n2cc(C)c(=O)[nH]c2=O)C1OC(C)=O (centres undefined)	> 100	> 100	> 100	> 100	> 100	> 100	> 100	> 100	> 100	> 100	> 100	> 100	> 100	> 100	> 100	> 100	> 100	> 100	> 100	
COc1cc2c(c(O)c1OC)C(O)C1CCC(=O)N1C2c1cccc2ccccc12 (centres undefined)	> 100	> 100	> 100	> 100	> 100	> 100	> 100	> 100	> 100	> 100	> 100	> 100	> 100	> 100	> 100	> 100	> 100	> 100	> 100	
C1=Nc2ccc(cc2)N=Cc2ccc(cc2)OCc2cccc(n2)COc2ccc1cc2	> 100	> 100	> 100	> 100	> 100	> 100	> 100	> 100	> 100	> 100	> 100	> 100	> 100	> 100	> 100	> 100	> 100	> 100	> 100	
CC1OC(n2ccc(=O)[nH]c2=O)C=C(OC(=O)c2ccccc2)C1=O (centres undefined)			> 100	> 100	53.4	> 100	> 100		> 100	> 100		> 100	> 100			> 100	36.8		> 100	> 100
Cc1ccc(O)c(C(c2ccc([N+](=O)[O-])cc2)c2cc(C)ccc2O)c1	43	20.7	31.3	28.6	19.9		7.61	24	56.9	32.1	20.3	23.1	19.2	22.8	26.2	29.8	23.8	23.9	21.7	
O=C1Cc2c([nH]c3c(Cl)cccc23)-c2ccccc2N1	> 100	> 100	> 100		> 100	> 100	> 100	> 100	> 100	> 100	> 100	> 100	> 100	> 100	> 100	> 100	> 100		> 100	
Cc1ncc([N+](=O)[O-])n1CCN(C)C(=O)CCCn1ccnc1[N+](=O)[O-]	> 100	> 100	> 100	> 100	> 100	> 100	> 100	> 100	> 100	> 100	> 100	> 100	> 100	> 100	> 100	> 100	> 100	> 100	> 100	
